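Growth conditions: 96-well plates. Treatment: test compound, 48 hours, 5 concentrations. Analysis: linear interpolation between bracketing concentrations; unreached endpoints set to highest concentration. TGI: total growth inhibition.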
Experiments:
Assay in all cases: NCI tumour cell line growth inhibition, 48 h
KM20L2 colon = test system: KM20L2 colon
CCRF-CEM leukemia = test system: CCRF-CEM leukemia
NCI-H226 lung = test system: NCI-H226 lung
A498 renal = test system: A498 renal
MALME-3M melanoma = test system: MALME-3M melanoma
U251 CNS = test system: U251 CNS
A549 NSCLC = test system: A549 NSCLC
RXF 393 renal = test system: RXF 393 renal
SF-295 CNS = test system: SF-295 CNS
NCI-H522 lung = test system: NCI-H522 lung
RPMI-8226 leukemia = test system: RPMI-8226 leukemia
SK-OV-3 ovarian = test system: SK-OV-3 ovarian
XF 498 CNS = test system: XF 498 CNS
SW-620 colon = test system: SW-620 colon
P388 leukemia = test system: P388 leukemia
UO-31 renal = test system: UO-31 renal
UACC-62 melanoma = test system: UACC-62 melanoma
HT29 colon = test system: HT29 colon
OVCAR-3 ovarian = test system: OVCAR-3 ovarian
IGROV1 ovarian = test system: IGROV1 ovarian
HL-60(TB) leukemia = test system: HL-60(TB) leukemia
MCF7 breast = test system: MCF7 breast
SK-MEL-2 melanoma = test system: SK-MEL-2 melanoma
OVCAR-8 ovarian = test system: OVCAR-8 ovarian
HCT-116 colon = test system: HCT-116 colon
NCI/ADR-RES ovarian = test system: NCI/ADR-RES ovarian
NCI-H460 lung = test system: NCI-H460 lung
HCC-2998 colon = test system: HCC-2998 colon
P388/ADR leukemia = test system: P388/ADR leukemia
SF-539 CNS = test system: SF-539 CNS
OVCAR-5 ovarian = test system: OVCAR-5 ovarian
OVCAR-4 ovarian = test system: OVCAR-4 ovarian
HCT-15 colon = test system: HCT-15 colon
SN12C renal = test system: SN12C renal
SF-268 CNS = test system: SF-268 CNS
HOP-92 NSCLC = test system: HOP-92 NSCLC
DMS 273 small cell lung = test system: DMS 273 small cell lung
HOP-18 NSCLC = test system: HOP-18 NSCLC
COLO 205 colon = test system: COLO 205 colon
M19-MEL melanoma = test system: M19-MEL melanoma
MOLT-4 leukemia = test system: MOLT-4 leukemia
SNB-75 CNS = test system: SNB-75 CNS
SK-MEL-28 melanoma = test system: SK-MEL-28 melanoma
SN12K1 renal = test system: SN12K1 renal
EKVX NSCLC = test system: EKVX NSCLC
SNB-19 CNS = test system: SNB-19 CNS
HOP-62 NSCLC = test system: HOP-62 NSCLC
SK-MEL-5 melanoma = test system: SK-MEL-5 melanoma
CAKI-1 renal = test system: CAKI-1 renal
K-562 leukemia = test system: K-562 leukemia
DLD-1 colon = test system: DLD-1 colon
LOX IMVI melanoma = test system: LOX IMVI melanoma

Structure (SMILES): COc1cc(C2c3cc4c(cc3[C@@H](Nc3ccc(N5CCOCC5)cc3)C3COC(=O)[C@H]23)OCO4)cc(OC)c1O (some centres not stated)
- TGI (KM20L2 colon): 3.91 µM
- TGI (CCRF-CEM leukemia): 0.773 µM
- TGI (NCI-H226 lung): 2.9 µM
- TGI (A498 renal): 3.2 µM
- TGI (MALME-3M melanoma): 15 µM
- TGI (U251 CNS): 1.89 µM
- TGI (A549 NSCLC): 1.62 µM
- TGI (RXF 393 renal): 5.86 µM
- TGI (SF-295 CNS): 2.42 µM
- TGI (NCI-H522 lung): 3.4 µM
- TGI (RPMI-8226 leukemia): 12.6 µM
- TGI (SK-OV-3 ovarian): 5.38 µM
- TGI (XF 498 CNS): 4.23 µM
- TGI (SW-620 colon): 10.1 µM
- TGI (P388 leukemia): 1.01 µM
- TGI (UO-31 renal): 5.16 µM
- TGI (UACC-62 melanoma): 3.91 µM
- TGI (HT29 colon): 4.58 µM
- TGI (OVCAR-3 ovarian): 13.2 µM
- TGI (IGROV1 ovarian): 26 µM
- TGI (HL-60(TB) leukemia): 0.376 µM
- TGI (MCF7 breast): 14.7 µM
- TGI (SK-MEL-2 melanoma): 5.4 µM
- TGI (OVCAR-8 ovarian): 3.95 µM
- TGI (HCT-116 colon): 13.7 µM
- TGI (NCI/ADR-RES ovarian): 26.2 µM
- TGI (NCI-H460 lung): 1.14 µM
- TGI (HCC-2998 colon): 4.1 µM
- TGI (P388/ADR leukemia): 1.07 µM
- TGI (SF-539 CNS): 2.32 µM
- TGI (OVCAR-5 ovarian): 22.1 µM
- TGI (OVCAR-4 ovarian): 25.9 µM
- TGI (HCT-15 colon): 2.59 µM
- TGI (SN12C renal): 2.12 µM
- TGI (SF-268 CNS): 14.2 µM
- TGI (HOP-92 NSCLC): 8.74 µM
- TGI (DMS 273 small cell lung): 1.85 µM
- TGI (HOP-18 NSCLC): 6.67 µM
- TGI (COLO 205 colon): 4.94 µM
- TGI (M19-MEL melanoma): 22.8 µM
- TGI (MOLT-4 leukemia): 0.19 µM
- TGI (SNB-75 CNS): 78.2 µM
- TGI (SK-MEL-28 melanoma): 26.8 µM
- TGI (SN12K1 renal): 3.6 µM
- TGI (EKVX NSCLC): 5.06 µM
- TGI (SNB-19 CNS): 2.72 µM
- TGI (HOP-62 NSCLC): 0.829 µM
- TGI (SK-MEL-5 melanoma): 2.45 µM
- TGI (CAKI-1 renal): 2.63 µM
- TGI (K-562 leukemia): 5.01 µM
- TGI (DLD-1 colon): 4.12 µM
- TGI (LOX IMVI melanoma): 4.27 µM
